These results are taken from patent US20140221340A1 (KYOWA HAKKO KIRIN CO., LTD., priority 2011, published 2014).

The target in this assay is T1, human CCR10 (Homo sapiens, UniProt P46092).
T1 construct: expressed in transfected cells; host or cells: KJMGER8 cell (cell line derived from Namalwa cell); expression induced with 10 nmol/L β-estradiol
T1 sequence (P46092 1-362): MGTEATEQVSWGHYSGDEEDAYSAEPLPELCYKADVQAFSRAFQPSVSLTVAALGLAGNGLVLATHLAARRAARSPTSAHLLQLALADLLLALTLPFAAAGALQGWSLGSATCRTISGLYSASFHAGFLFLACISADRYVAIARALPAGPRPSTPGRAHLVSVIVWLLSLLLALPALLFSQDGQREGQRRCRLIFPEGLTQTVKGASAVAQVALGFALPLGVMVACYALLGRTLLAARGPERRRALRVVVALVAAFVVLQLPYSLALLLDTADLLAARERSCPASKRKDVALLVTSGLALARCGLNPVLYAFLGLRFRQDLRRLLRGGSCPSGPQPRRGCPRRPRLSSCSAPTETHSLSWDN
In words: Calcium assay of human CCR10 (inhibition of CTACK-induced increase in intracellular calcium ion concentration in hCCR10G16 cells). The assay is classed as cell-based. The conditions noted are these: test compound 100 nmol/L, human recombinant CTACK, hCCR10G16 cells (KJMGER8/Namalwa-derived, Gα16 co-expressed), FLIPR or FDSS; for inhibition at 0.1 µM: read-out: Inhibitory rate (%) for an increase in calcium ion concentration. As to the method: A CCR10-inducible expression plasmid was produced according to a known method (“Analytical Biochemistry”, 2006, vol. 400, page 163). A DNA encoding human CCR10 was obtained by PCR. Using human chromosomal DNA (100 ng; manufactured by Clontech Laboratories, Inc.) as a template, a synthetic DNA having the sequences shown by SEQ ID NOs: 1 and 2 as a human CCR10 cDNA specific primer, and Pyrobest DNA Polymerase (manufactured by TAKARA SHUZO CO. LTD.) as an enzyme, a DNA encoding human CCR10 was obtained by PCR. As a buffer solution for PCR, the buffer solution attached to the enzyme was diluted 10-fold with deionized water and used. Using Thermal Cycler DNA Engine (manufactured by MJ Research), PCR was performed by 35 cycles of reactions composed of an incubation at 90° C. for 2 min, at 94° C. for 30 seconds, at an anneal temperature of 58° C. for 30 seconds, and at 72° C. for 1 min.
The amplified PCR fragment was cleaved with HindIII and NotI, then a human CCR10 DNA fragment was recovered by an agarose gel electrophoresis method. The fragment was incorporated in between the corresponding restriction enzyme sites (HindIII-NotI) of an inducible expression vector, whereby a human CCR10-inducible expression plasmid were prepared.
Using a primer specific to the sequence of the plasmid (synthetic DNA having the sequences shown by SEQ ID NOs: 3 and 4), the sequence of human CCR10 DNA region was determined. For the determination of the base sequence, DNA sequencer 377 (manufactured by PerkinElmer) and a reaction kit (ABI Prism (registered trade mark) BigDye (registered trade mark) Terminator Cycle Sequencing Ready Reaction kit: manufactured by Applied Biosystems) were used. The sequence of human CCR10 DNA matched with the sequence (NM_016602) registered in GenBank.
Cells for the detection of the signal from human CCR10 by a calcium assay were prepared. Human CCR10-inducible expressing cells whose host cell is KJMGER8 cell (cell line derived from Namalwa cell) were prepared according to a known method (“Analy Biochem”, 2006, vol. 400, page 163). Human CCR10-inducible expression plasmid produced above and Gα16 expression plasmid were co-transfected into KJMGER8 cell by an electroporation method (“Cytotechnology”, 1990, vol. 3, page 133), whereby a signal from human CCR10 could be detected by a calcium assay (hereinafter to be referred to as hCCR10G16 cell). Gα16 expression plasmid was produced by incorporating human Gα16 DNA into expression vector pAMoh (WO03/087366). Induced expression of human CCR10 was performed by cultivating hCCR10G16 cells in the presence of 10 nmol/L β-estradiol (manufactured by Sigma Ltd.) for 24 hr.
Cells expressing human CCR10 induced by the above-mentioned method were suspended in RPMI1640 medium and adjusted to cell density of 1.25×10^6 cells/mL. This mixture was dispensed to a 384 well clear bottom plate (manufactured by Corning Incorporated) at 20 μL/well, and these were incubated at 37° C. for several dozen minutes. A loading buffer prepared according to the protocol attached to FLIPR Calcium 3 assay kit (manufactured by Molecular Device) was dispensed to this plate at 20 μL/well, and the plate was incubated at 37° C. for 60 min. A 33 μmol/L DMSO solution of the test compound was diluted 37-fold with RPMI1640 medium and the resulting solution was added at 5 μL/well, and the mixture was incubated at 37° C. for 30 min. 300 nmol/L human recombinant CTACK (manufactured by R and D Systems) diluted with RPMI1640 medium containing 1 w/v % bovine serum albumin was added at 5 μL/well. Change of the intracellular calcium ion concentration for about 5 min after the addition was measured by FLIPR (manufactured by Molecular Device) or FDSS (manufactured by Hamamatsu Photonics K.K.). The difference between the maximum fluorescence intensity and the minimum fluorescence intensity for 5 min was calculated, and taken as the measurement value (maximum fluorescence intensity−minimum fluorescence intensity). […]

For `CCC(=O)NS(=O)(=O)c1cnn2c(Nc3ccc(Cl)cc3Cl)c(C(=O)N3CCC(c4ccc(F)cc4)CC3)cnc12` [a-19, N-{7-(2,4-Dichlorophenylamino)-6-[4-(4-fluorophenyl)piperidine-1-carbonyl]pyrazolo[1,5-a]pyrimidin-3-ylsulfonyl}propionamide], the inhibition at 0.1 µM is 97%. As for `Cc1cc(Cl)ccc1Nc1c(C(=O)N2CCC3(CC2)OCc2ccccc23)cnc2c(S(=O)(=O)NC(=O)C3CC3)cnn12` [a-46], the “Inhibitory rate (%) for an increase in calcium ion concentration” value is recorded as over 100%. For `CCNC(=O)NS(=O)(=O)c1cnn2c(Nc3cc(Cl)ccc3F)c(C(=O)N3CCC(c4ccc(F)cc4)CC3)cnc12` [a-34, 7-(5-Chloro-2-fluorophenylamino)-N-(ethylcarbamoyl)-6-[4-(4-fluorophenyl)piperidine-1-carbonyl]pyrazolo[1,5-a]pyrimidine-3-sulfonamide], the inhibition at 0.1 µM is over 100%. Still for that read-out and setting: to `CCNC(=O)NS(=O)(=O)c1cnn2c(Nc3ccccc3Cl)c(C(=O)N3CCC(c4ccc(F)cc4)CC3)cnc12` [a-10, 7-(2-Chlorophenylamino)-N-(ethylcarbamoyl)-6-[4-(4-fluorophenyl)piperidine-1-carbonyl]pyrazolo[1,5-a]pyrimidine-3-sulfonamide] belongs over 100%. For the molecule `Cc1ccc(Cl)c(Nc2c(C(=O)N3CCC4(CC3)OCc3ccccc34)cnc3c(S(=O)(=O)NC(=O)C4(C)COC4)cnn23)c1` [a-58, N-{7-(2-Chloro-5-methylphenylamino)-6-[3H-spiro(isobenzofuran-1,4′-piperidine)-1′-carbonyl]pyrazolo[1,5-a]pyrimidin-3-ylsulfonyl}-3-methyloxetane-3-carboxamide], the inhibition at 0.1 µM is over 100%. Same read-out and setting: the value for `CCC(=O)NS(=O)(=O)c1cnn2c(Nc3cc(C)ccc3Cl)c(C(=O)N3CCC4(CC3)OCc3ccccc34)cnc12` [a-56, N-{7-(2-Chloro-5-methylphenylamino)-6-[3H-spiro(isobenzofuran-1,4′-piperidine)-1′-carbonyl]pyrazolo[1,5-a]pyrimidin-3-ylsulfonyl}propionamide] was over 100%. The same measure, in the same setting: to `CC(=O)NS(=O)(=O)c1cnn2c(Nc3cc(F)ccc3F)c(C(=O)N3CCC(c4ccc(F)cc4)CC3)cnc12` [a-35, N-{7-(2,5-Difluorophenylamino)-6-[4-(4-fluorophenyl)piperidine-1-carbonyl]pyrazolo[1,5-a]pyrimidin-3-ylsulfonyl}acetamide] belongs over 100%.

For `CC(=O)NS(=O)(=O)c1cnn2c(Nc3cc(C)ccc3Cl)c(C(=O)N3CCC4(CC3)OCc3ccccc34)cnc12` [a-55, N-{7-(2-Chloro-5-methylphenylamino)-6-[3H-spiro(isobenzofuran-1,4′-piperidine)-1′-carbonyl]pyrazolo[1,5-a]pyrimidin-3-ylsulfonyl}acetamide], the inhibition at 0.1 µM was over 100%. The same measure, in the same setting: the value for `CCC(=O)NS(=O)(=O)c1cnn2c(Nc3cc(Cl)ccc3Cl)c(C(=O)N3CCC(c4ccc(F)cc4)CC3)cnc12` [a-22, N-{7-(2,5-Dichlorophenylamino)-6-[4-(4-fluorophenyl)piperidine-1-carbonyl]pyrazolo[1,5-a]pyrimidin-3-ylsulfonyl}propionamide] was over 100%. For `Cc1ccc(F)c(Nc2c(C(=O)N3CCC4(CC3)OCc3ccccc34)cnc3c(S(=O)(=O)NC(=O)C4CC4)cnn23)c1` [a-52], the “Inhibitory rate (%) for an increase in calcium ion concentration” value was over 100%. In the case of `CCNS(=O)(=O)c1cnn2c(Nc3ccc(Cl)cc3C)c(C(=O)N3CCC(c4ccc(F)cc4)CC3)cnc12` [a-16, N-Ethyl-7-(4-chloro-2-methylphenylamino)-6-[4-(4-fluorophenyl)piperidine-1-carbonyl]pyrazolo[1,5-a]pyrimidine-3-sulfonamide], the inhibition at 0.1 µM was over 100%. On the same count and under the same terms, the value for `O=C(c1cnc2c(S(=O)(=O)Nc3nncs3)cnn2c1Nc1cc(Cl)ccc1Cl)N1CCC(c2ccc(F)cc2)CC1` [a-78, 7-(2,5-Dichlorophenylamino)-6-[4-(4-fluorophenyl)piperidine-1-carbonyl]-N-(1,3,4-thiadiazol-2-yl)pyrazolo[1,5-a]pyrimidine-3-sulfonamide] was over 100%; that for `COCCNS(=O)(=O)c1cnn2c(Nc3ccccc3Cl)c(C(=O)N3CCC(c4ccc(F)cc4)CC3)cnc12` [a-11, 7-(2-Chlorophenylamino)-6-[4-(4-fluorophenyl)piperidine-1-carbonyl]-N-(2-methoxyethyl)pyrazolo[1,5-a]pyrimidine-3-sulfonamide] was 28.9%; that for `CCC(=O)NS(=O)(=O)c1cnn2c(Nc3cc(C(F)(F)F)ccc3Cl)c(C(=O)N3CCC(c4ccc(F)cc4)CC3)cnc12` [a-29, N-{7-(2-Chloro-5-trifluoromethylphenylamino)-6-[4-(4-fluorophenyl)piperidine-1-carbonyl]pyrazolo[1,5-a]pyrimidin-3-ylsulfonyl}propionamide] was over 100%. Turning to `CCNC(=O)NS(=O)(=O)c1cnn2c(NCc3ccccc3)c(C(=O)N3CCC(c4ccccc4)CC3)cnc12` [a-76, 7-Benzylamino-N-ethylcarbamoyl-6-(4-phenylpiperidine-1-carbonyl)pyrazolo[1,5-a]pyrimidine-3-sulfonamide], the inhibition at 0.1 µM was found to be 95.1%. Take `Cc1cc(F)ccc1Nc1c(C(=O)N2CCC(c3ccccc3)CC2)cnc2c(S(=O)(=O)N=CN(C)C)cnn12` [a-73, N-[7-(4-Fluoro-2-methylphenylamino)-6-(4-phenylpiperidine-1-carbonyl)pyrazolo[1,5-a]pyrimidin-3-ylsulfonyl]-N,N-dimethylformimidamide]: the “Inhibitory rate (%) for an increase in calcium ion concentration” value is given as 68.9%. As for `Cc1ccc(Cl)c(Nc2c(C(=O)N3CCC4(CC3)OCc3ccccc34)cnc3c(S(=O)(=O)NC(=O)NC4CCOCC4)cnn23)c1` [a-81, 7-(2-Chloro-5-methylphenylamino)-6-[3H-spiro(isobenzofuran-1,4′-piperidine)-1′-carbonyl]-N-(tetrahydro-2H-pyran-4-ylcarbamoyl)pyrazolo[1,5-a]pyrimidine-3-sulfonamide], the inhibition at 0.1 µM turned out to be 62.3%. Consider `Cc1cc(F)ccc1Nc1c(C(=O)N2CCC(c3ccc(F)cc3)CC2)cnc2c(S(=O)(=O)NCC(F)(F)F)cnn12` [a-4, 7-(4-Fluoro-2-methylphenylamino)-6-[4-(4-fluorophenyl)piperidine-1-carbonyl]-N-(2,2,2-trifluoroethyl)pyrazolo[1,5-a]pyrimidine-3-sulfonamide], for which the inhibition at 0.1 µM is over 100%. On to `O=C(NC1CC1)NS(=O)(=O)c1cnn2c(Nc3ccc(F)cc3Cl)c(C(=O)N3CCC(c4ccc(F)cc4)CC3)cnc12` [a-21, 7-(2-Chloro-4-fluorophenylamino)-N-(cyclopropylcarbamoyl)-6-[4-(4-fluorophenyl)piperidine-1-carbonyl]pyrazolo[1,5-a]pyrimidine-3-sulfonamide], for which the inhibition at 0.1 µM is over 100%.
